From patent US11649222B2, “Compounds” (UNIVERSITETET I OSLO, priority 2016, dated 2023)
Counter-ions that a name gives are not always drawn. Like-named read-outs stand apart in the source and are kept apart here.

Columns and labels:
[1] = tested on: resistant gram-negative MBL-based bacteria; experiment: MICx: adjuvant concentration giving carbapenem MIC ≤ 2 mg/L; type: cell-based; details: lowest concentration of compound X that results in a MIC value of ≤ 2 mg/L for carbapenem antibiotics
Description: (§1) • Plate bacterial strain(s) on appropriate media: • Gram-negative bacteria with ESBLs or carbapenemases: green agar plates with 100 mg/L ampicillin • Gram-negative bacteria without β-lactamases: green agar plates • Gram-positive bacteria (Staphylococci and Enterococci): blood agar plates • Incubate o.n. at 37° C. […] (Should be used within 15 min of preparation). • Dilute the 0.5 McFarland suspension 1:100 into MH broth. […] Plate 10 μl of the dilution on MH agar plates (×2). Incubate o.n. at 37° C., count the colonies and calculate the final CFU/ml inoculum in the plate by multiplying the average number of colonies with 10000 and divide by 2. The final inoculum should be between 3-7×10^5 CFU/ml. • Add 50 μl of the prepared bacterial suspension to each well in the microtiter plate except negative growth control. Preparation of Compounds/Antibiotics • Calculate the desired concentration-range and volume of the compounds/antibiotics in the assay. […] Dilute the stock solution in MH broth. Make subsequent 2-fold dilutions in MH broth of the desired concentrations if a concentration range is to be tested (remember the extra dilution factor in the assay plate). Always include extra volume for pipetting. Take into consideration stock solutions that are made in buffers that have an effect on bacterial growth (e.g. DMSO).

human hepG2 cells = experiment: In vitro toxicity in human hepG2 cells (AlamarBlue viability); type: cell-based
Description: For viability assays, cells were seeded in white 96-well Nunclon plates at a density of 20,000 cells/well and left overnight to adhere before experiments were conducted. Zn chelators dissolved in DMSO were added to white 96-well plates containing 20000 HepG2 cells/well at concentrations ranging from 1 to 1×10^−6 mM (max DMSO concentration never exceeded 1%) and incubated for 24 hours at 37° C. After 24 hours, AlamarBlue® cell viability reagent (Thermo Fisher, Carlsbad, USA) was added (10% final concentration) and incubated for 4 hours at 37° C.

[2] = tested on: P. aeruginosa K34-7 (VIM-2); experiment: Microbroth dilution MIC of carbapenem with/without inhibitor; type: cell-based; details: inhibitor 63 mg/L
Description: as §1

[3] = tested on: K. pneumoniae K66-45 (NDM-1); experiment: as above; type: cell-based
Description: as §1

VIM-2 = VIM-2 (Escherichia coli, UniProt Q5U7L7); type: biochemical; details: purified VIM-2, PD-10 column
Description: The eluent used was Chelex-treated HEPES 50 mM buffer, pH 7.5. […] In all experiments, 16 aliquots of 250 μL were taken from the PD-10 column runsout and enzyme activity was analysed. Enzyme activity was measured by adding Nitrocefin as a reporter substrate (final concentration of 50 μM).
To investigate if more extreme time-dependent and concentration-dependent conditions could restore enzyme activity, aliquots having final concentrations of 30 nM column-treated enzyme and 1000 μM Zn^2+ on ice and at room temperature over prolonged time.

[4] = tested on: P. aeruginosa 50692172 (NDM-1); experiment: Microbroth dilution MIC of meropenem with/without inhibitor; type: cell-based; details: inhibitor 63 mg/L
Description: as §1

[5] = tested on: K. pneumoniae 50732159 (No MBL); experiment: as above; type: cell-based; details: inhibitor 63 mg/L
Description: as §1

[6] = tested on: P. aeruginosa 50808021 (No MBL); experiment: as above; type: cell-based; details: inhibitor 63 mg/L
Description: as §1

neurons = details: Canzoniero et al.; cited from earlier work
P. mirabilis (NDM-1) = experiment: Microbroth dilution MIC of meropenem ± 25 mg/L inhibitor; type: cell-based
Description: (§2) • Plate bacterial strain(s) on appropriate media: • Gram-negative bacteria with ESBLs or carbapenemases: green agar plates with 100 mg/L ampicillin • Gram-negative bacteria without β-lactamases: green agar plates • Gram-positive bacteria (Staphylococci and Enterococci): blood agar plates • Incubate o.n. at 37° C. Day 2: Prepare the Bacterial Inoculum: • Prepare a 0.5 McFarland suspension of bacteria in 0.85% NaCl. (Should be used within 15 min of preparation). • Dilute the 0.5 McFarland suspension 1:100 into MH broth. Check the inoculum by diluting the prepared bacterial suspension 1:100 (10 μl bacterial suspension+990 μl 0.85% NaCl). Plate 10 μl of the dilution on MH agar plates (×2). Incubate o.n. at 37° C., count the colonies and calculate the final CFU/ml inoculum in the plate by multiplying the average number of colonies with 10000 and divide by 2. The final inoculum should be between 3-7×10^5 CFU/ml. • Add 50 μl of the prepared bacterial suspension to each well in the microtiter plate except negative growth control. Preparation of Compounds/Antibiotics • Calculate the desired concentration-range and volume of the compounds/antibiotics in the assay. […] Dilute the stock solution in MH broth. Make subsequent 2-fold dilutions in MH broth of the desired concentrations if a concentration range is to be tested (remember the extra dilution factor in the assay plate). Always include extra volume for pipetting. Take into consideration stock solutions that are made in buffers that have an effect on bacterial growth (e.g. DMSO).

P. stuartii (NDM) = experiment: as above; type: cell-based
Description: as §2

E. cloacae (VIM) = experiment: as above; type: cell-based
Description: as §2

C. freundii (NDM) = experiment: as above; type: cell-based
Description: as §2

P. stuartii (NDM-1) = experiment: as above; type: cell-based
Description: as §2

K. pneumoniae (NDM) = experiment: as above; type: cell-based; details: K. pneumoniae NDM (several strains)
Description: as §2

E. coli (VIM-1) = experiment: as above; type: cell-based
Description: as §2

C. freundii (NDM-1) = experiment: as above; type: cell-based
Description: as §2

K. pneumoniae (VIM) = experiment: as above; type: cell-based
Description: as §2

K. pneumoniae (NDM-7) = experiment: as above; type: cell-based
Description: as §2

[7] = tested on: M. morganii (OXA48+ NDM-1); experiment: as above; type: cell-based
Description: as §2

[8] = In vivo toxicity in healthy mice; design: species or system Balb/c mice; details: ± SEM
Description: Female Balb/c mice (4 weeks old, approximately 20 g, Charles River, L'Arbresle, France) acclimatized 4 days in the animal facility before initiation of experiments. […] Individual weights were followed four days a week. Relative weight was calculated as the ratio between the weight of the day and the weight of the first day. The protocol for experiments in mice was approved by the University of Lyon Animal Ethics Committee. Toxicity experiments were performed by Antineo (www.antineo.fr).

[9] = Solution stability on storage, measured indirectly by MIC; type: physicochemical; details: solution stored at 2-8° C.; MIC at 25 mg/L inhibitor
Source text: P. aeruginosa harboring VIM-2 and K. pneumonia bearing NDM-1 was used as two indicator strains.

K. pneumoniae K66-45 = type: cell-based; details: inhibitor 25 mg/L; MEM 1 mg/L
Description: After plating and grown overnight at 37° C., only single colonies, ignoring any touching the edges of the plate, were counted.
10^9 CFU K66-45 (Mueller-Hinton broth, no selection) was plated and grown overnight, 37° C. Only single colonies, ignoring any touching the edges of the plate, were counted.

Question: What does the source list for `c1ccc(CN(CCN(Cc2ccccn2)Cc2ccccn2)Cc2ccccn2)nc1` [TPEN, N,N,N′,N′-tetrakis(2-pyridylmethyl) ethylenediamine, reference compound]?
Answer: MICx [1]: 15 µM; IC50 (human hepG2 cells; human hepG2 cells, 24 hours, AlamarBlue, 8 replicates, read-out: IC50): 7.1 µM; IC50 (human hepG2 cells; human hepG2 cells, read-out: IC50h): 7 µM; Meropenem activity in presence of inhibitor [2]: 1 mg/L; Meropenem activity in presence of inhibitor ([3]; inhibitor 63 mg/L, K. pneumoniae K66-45 NDM-1): ≤0.5 mg/L; irreversibility of VIM-2 inhibition (VIM-2): irreversibly inhibited; Meropenem activity in presence of inhibitor [4]: ≤0.5 mg/L; Meropenem activity in presence of inhibitor [5]: ≤0.064 mg/L; Meropenem activity in presence of inhibitor [6]: 64 mg/L; EC50 (neurons): ~5 µM

Question: Which results are given for `C[C@@H](N)C(=O)N[C@H](C)C(=O)NCCc1ccc(NC(=O)c2ccc(CN(Cc3ccccn3)Cc3ccccn3)nc2)cc1` [Example 195, N-(4-(2-((R)-2-((R)-2-aminopropanamido)propanamido)ethyl)phenyl)-6-((bis(pyridin-2-ylmethyl)amino)methyl)nicotinamide hydrochloride]?
Answer: IC50 (human hepG2 cells; Homo sapiens, HepG2, 24 h): > 1000 µM; MIC meropenem + 25 mg/L Example 195 (P. mirabilis (NDM-1)): 0.125 µg/mL; MIC meropenem + 25 mg/L Example 195 (P. stuartii (NDM)): 0.25 µg/mL; MIC meropenem + 25 mg/L Example 195 (E. cloacae (VIM)): <0.03 µg/mL; MIC meropenem + 25 mg/L Example 195 (C. freundii (NDM)): 0.06 µg/mL; MIC meropenem + 25 mg/L Example 195 (P. stuartii (NDM-1)): 0.125 µg/mL; MIC meropenem + 25 mg/L Example 195 (K. pneumoniae (NDM)): 0.06 µg/mL; MIC meropenem + 25 mg/L Example 195 (E. coli (VIM-1)): <0.03 µg/mL; MIC meropenem + 25 mg/L Example 195 (C. freundii (NDM-1)): 0.125 µg/mL; MIC meropenem + 25 mg/L Example 195 (K. pneumoniae (VIM)): 0.125 µg/mL; MIC meropenem + 25 mg/L Example 195 (K. pneumoniae (NDM-7)): <0.03 µg/mL; MIC meropenem + 25 mg/L Example 195 [7]: 1 µg/mL; MIC ([3]; Klebsiella pneumoniae, read-out: MIC of MEM in the presence of inhibitor): 0.125 µg/mL; Relative weight of mice ([8]; Day 1, treatment 4 mg/kg intraperitoneally): 100 ± 0%; Relative weight of mice ([8]; Day 8, treatment 8 mg/kg): 98 ± 5%; Relative weight of mice ([8]; Day 16, treatment 16 mg/kg): 103 ± 3%; Relative weight of mice ([8]; Day 22, treatment 32 mg/kg): 103 ± 3%; Relative weight of mice ([8]; Day 29, treatment 64 mg/kg): 106 ± 6%; Relative weight of mice ([8]; Day 36, treatment 120 mg/kg): 110 ± 8%; Relative weight of mice ([8]; Day 43, no injection, reporting): 110 ± 8%; storage time after which the activity was absent [9]: 8 months; storage time at which a loss of activity was observed [9]: 5 months; RF - no of colonies (K. pneumoniae K66-45): 163 colonies
